The values that follow are results of earlier work, collected in patent EP4759315A1, “DRUG PREPARED FROM ORGANIC GERMANIUM COMPOUND AND GLUCOSAMINE COMPOUND, AND USE THEREOF” (Eion International Ltd., priority 2023, dated 2025).

The conditions of series [1]: in vivo.

The structures appear in SMILES notation.

With `O=C(O)C[CH2][Ge](=[O])[O][Ge](=[O])[CH2]CC(=O)O` [Ge-132, bis(carboxyethyl)germanium sesquioxide], in series [1], the “No-Observable-Adverse-Effect Level (NOAEL)” value is on record as 2000 mg/kg body weight/day. For the same molecule, the “pH of the solution” value (at the concentration of 1.28 g/100 ml in water) is listed as 3.06-3.12. Further, the solubility in water (water) is listed as 1.28 g/100 ml.
